Experimental data published in patent publication US20140193871A1, “METHOD FOR ENHANCING CARBON BIOFIXATION” (Industrial Technology Research Institute, priority 2013, published 2014).

Key:
[1] = test system: Clostridium ljungdahlii BCRC 17797; experiment: Growth (OD600) of Clostridium ljungdahlii under CO2/H2 gas mixture; format: cell-based; conditions: for OD600 value: t=144 hours, 2.5 g/L sodium lactate or 1.52 g/L NaCl in mPETC, 80% H2/20% CO2, 37° C.
Protocol: (§1) Clostridium ljungdahlii was first cultured anaerobically with mPETC medium containing 10 g/L of fructose at 37° C. in one of the air-tight bottles mentioned above. When OD600 reached a value ranging from 1 to 1.5, the culture medium was centrifuged at 3500 rpm for 210 seconds. The resulting cell pellet was resuspended with mPETC without fructose and then further cultured anaerobically at 37° C. for one hour to remove any residual sugar substrates.
(§2) 45 ml of mPETC culture medium was added to one of the crimp-top serum bottles mentioned above, which was then covered with an aluminum foil and autoclaved for 15 minutes at 121° C., 15 psi. After cooling, the medium-containing bottle was moved into an anaerobic chamber, and 50 μl of cysteine-HCl (50% w/v) was added to the medium to remove any dissolved oxygen.
(§3) For an experimental group, sodium lactate solution was further added to the culture medium to obtain a lactate concentration of 2.5 g/L (about 0.022 M).
(§4) For a sodium ion control group, NaCl solution was added to the culture medium to obtain a NaCl concentration of 1.52 g/L (about 0.026 M). This control group was designed to test whether the sodium ions present in the sodium lactate play any role in carbon dioxide fixation. Thus, the same molar amount of sodium ion as the experimental group was added.
(§5) Each of the serum bottles containing 45 ml of mPETC culture medium was then inoculated with 5 ml of Clostridium ljungdahlii culture that had residual sugar removed. A sample taken at this point was labeled as t=0 sample. The bottles were then sealed with rubber stoppers and further covered with aluminum crimp caps to ensure an air-tight closure.
The headspaces of the air-tight bottles were first purged with a gas mixture containing 80% N2 and 20% of CO2 under a pressure of 10 psi. Needles were inserted into the rubber stops to allow the gas to escape from the bottles. […]
Syringes with needles were used to collect liquid samples. […] The supernatant was analyzed with an Agilent 1100 series high-performance liquid chromatography (HPLC) with Aminex HPX-87 H (300 mm×7.8 mm) column.

[2] = test system: Clostridium ljungdahlii BCRC 17797; experiment: HPLC analysis of culture medium: acetic acid produced and lactic acid consumed during CO2 fermentation; format: cell-based; conditions: for carbon atoms contained in acetic acid produced / Acetic Acid ΔC (Ct=144 h − Ct=0), acetic acid produced: 144 hours of culture; for Acetic Acid ΔC (Ct=144 h − Ct=0), acetic acid produced / Acetic Acid Ct=0 h / Acetic Acid Ct=144 h: 2.5 g/L sodium lactate or 1.52 g/L sodium chloride in mPETC; for Acetic Acid Ct=0 h: t=0; for Acetic Acid Ct=144 h: t=144 hours; for Acetate production: after 96 hours of culture
Protocol: as §1, §2, §3, §4, §5
The headspaces of the air-tight bottles were first purged with a gas mixture containing 80% N2 and 20% of CO2 under a pressure of 10 psi. Needles were inserted into the rubber stops to allow the gas to escape from the bottles. After about 30 seconds of exposure to the gas mixture, an anaerobic condition filled with CO2 was obtained within the bottles.
Using needles, the headspaces of the bottles were then further purged with another gas mixture containing 80% H2 and 20% of CO2 under a pressure of 20 psi to replace the previous gas mixture. After about 30 seconds, needles were removed and the pressure within the bottles was built up to about 20 psi. The bottles were then moved to a 37° C. incubator and placed on a shaker providing a shaking speed of 100 rpm.
Every 12 hours, a needle was used to release the gas built up within the bottle, and the headspace of the bottle was purged and refreshed under the same process as described above to replenish gaseous carbon source under a stabilized pressure.
(§6) Syringes with needles were used to collect liquid samples. After measuring the OD600, the liquid samples were centrifuged at 12,000 rpm for 10 minutes. The resulting cell pellet was stored in 700 μl TRIzol solution for later RNA extraction and gene expression analysis. The supernatant was analyzed with an Agilent 1100 series high-performance liquid chromatography (HPLC) with Aminex HPX-87 H (300 mm×7.8 mm) column.
The experimental protocol as described in Example 1 was repeated, except that, besides having a no-additive control group, two experimental groups were prepared, one had 1 g/L of lactate in the culture medium and the other had 2.5 g/L of lactate in the culture medium.

[3] = test system: lactate permease and genes involved in the Wood-Ljungdahl pathway; experiment: RT-qPCR expression of lactate permease and Wood-Ljungdahl pathway genes; format: cell-based, Clostridium ljungdahlii; conditions: 2.5 g/L sodium lactate; relative to no-additive control group (FIG. 3)
Protocol: as §6
Real-time quantitative polymerase chain reaction (RT-qPCR) was used to quantify the expression of certain genes listed in Table 2.

Question: For `[Cl-].[Na+]` [sodium chloride, reference compound], which OD600 value [1] is on record?
Answer: 0.82

Question: What about the “carbon atoms contained in acetic acid produced” value [2] of the same molecule?
Answer: about 0.166 M

Question: What about the “Acetic Acid ΔC (Ct=144 h − Ct=0), acetic acid produced” value (“Acetic Acid ΔC” below) [2] of the same molecule?
Answer: 4.91 g/L

Question: What about the “Acetic Acid ΔC” value ([2]; listed as sodium-ion control group) of the same molecule?
Answer: about 4.97 g/L

Question: And the “Acetic Acid Ct=0 h” value [2]?
Answer: 0.06 ± 0.00 g/L

Question: And the “Acetic Acid Ct=144 h” value [2]?
Answer: 4.97 ± 0.82 g/L

Question: How did the “difference in growth rates between groups” value ([1]; experimental, sodium ion control and no-additive control groups, up to 144 hours) turn out when `CC(O)C(=O)O` (stereo not shown) [sodium lactate] was run?
Answer: no significant difference

Question: What about the OD600 value [1] of the same molecule?
Answer: 0.71

Question: What about the Acetate production ([2]; 1 g/L lactate in medium) of the same molecule?
Answer: 8.13 ± 1.59 g/L

Question: What about the Acetate production ([2]; 2.5 g/L lactate in medium) of the same molecule?
Answer: 9.15 ± 0.06 g/L

Question: And the “carbon atoms contained in acetic acid produced” value [2]?
Answer: about 0.213 M

Question: What about the “Acetic Acid ΔC” value [2] of the same molecule?
Answer: 6.39 g/L

Question: What about the “amount of CO2 converted (fixed) to acetic acid, higher than control group” value ([2]; 144 hours, 0.191 M versus 0.166 M of control group) of the same molecule?
Answer: at least 15%

Question: What about the “carbon atoms that came from CO2 in the gas mixture (CO2 fixed to acetic acid)” value ([2]; 144 hours, 2.5 g/L sodium lactate, 0.213 M minus 0.022 M) of the same molecule?
Answer: at least 0.191 M

Question: And the “Acetic Acid Ct=0 h” value [2]?
Answer: 0.06 ± 0.00 g/L

Question: And the “Acetic Acid Ct=144 h” value [2]?
Answer: 6.45 ± 0.43 g/L

Question: And the “fold increase of CooS1” value [3]?
Answer: ~3 fold

Question: What about the “fold increase of lactate permease” value [3] of the same molecule?
Answer: ~11 fold

Question: And the “fold increase of metF” value [3]?
Answer: ~4 fold
